In brackets after ≈: the same amount, converted by molar mass. Where two headings read alike, the source gives them in different places.
Assays:
[1] = tested on: biosynthesis of prostaglandins (microsomes of the seminal vesicle of bovine); assay: Inhibitory effect on prostaglandin biosynthesis in vitro (Table 3); assay type: biochemical; settings: 4 μg/ml sodium arachidonate, bioassay on rat fundus stomach strips
Procedure: Sprangue-Dawley rats (male, 180-200 g) were fasted overnight, and killed by blow on the head. The stomach was isolated, and fundus stomach strips were prepared. The smooth muscle strips were perfused with Krebs-Hensleit solution (gassed with 95% O2 +5% CO2 gas) of 37° C. at a rate of […]. The Krebs-Hensleit solution contained 0.1 μg/ml of atropine, 0.1 μg/ml of phenoxybenzamine, 3 μg/ml of propranolol, 0.1 μg/ml of tripelennamine, and 0.2 μg/ml of methylsergide to prevent the effect of smooth muscle contracting substances, and 1 μg/ml of indomethacine to inhibit the biosynthesis of prostaglandin by the smooth muscles. Then, 150 μl of a reaction solution containing biologically synthesized prostaglandin was added to the perfusion solution, and the amount of the biologically synthesized prostaglandin was measured from the contraction of the smooth muscles. The contraction of the smooth muscles was recorded on a recorder using an isotonic transducer.
The reaction solution containing biologically synthesized prostaglandin was prepared in the following manner.
To 0.4 mg/ml of microsomes of the seminal vesicle of bovine were added 5 mM of L-tryptophan, 0.025 μM of bovine hemoglobin and 3 mμ of glutathione as cofactors. The mixture was incubated together with each of the test compounds shown in Table 4 at 37° C. for 2 minutes, and immediately then, 4 μg/ml of sodium arachidonate was added. The mixture was further incubated at 37° C. for 10 minutes, and immediately then, the prostaglandin activity of the reaction solution was measured by bioassay.
The microsomes of the seminal vesicle of bovine had been prepared by suspending microsomes of the seminal vesicle of bovine (a product of Miles Laboratories, Inc.) in a 50 mM Tris.HCl buffer (pH 7.4) using a glass homogenizer, and stored in ice water prior to use.
ID50 denotes the concentration of each test compound required to inhibit the biosynthesis of prostaglandins by 50%.

[2] = tested on: platelet aggregation (platelet-rich plasmas (PRP) of guinea pigs); assay: Activity of inhibiting platelet aggregation in vitro, guinea pig PRP, sodium arachidonate as aggregating agent (Table 1); assay type: cell-based, Hartley-strain male guinea pigs; settings: Cavia porcellus, sodium arachidonate 0.03 mM final, 37° C., final concentration, read-out: IC50 (minimum concentration of drug which showed a percent inhibition of more than 50%)
Procedure: (§1) Some 1-substituted-3-acylpyrrole derivatives and other drugs were tested for platelet aggregation inhibiting activities in vitro using platelet-rich plasmas (PRP) of man and guinea pigs. The results are shown as minimum concentration of drugs which inhibit more than 50% of platelet aggregation induced by several aggregating agents.
(§2) In experiments with PRP of guinea pigs, sodium arachidonate (final concentration 0.03 mM) was used as an aggregating agent. In experiments with human PRP, sodium arachidonate (final concentration 0.1 mM), collagan suspension (final concentration 10 μg/ml), epinephrine solution (final concentration 20 μg/ml; for secondary aggregation), an epinephrine solution (final concentration 2 μg/ml; for primary aggregation) and ADP (final concentration 5 μM) were used as aggregating agents.
In an experiment with guinea pig PRP, citrated blood (containing 0.38% sodium citrate as a final concentration) was withdrawn by cardiac puncture from Hartley-strain male guinea pigs having a body weight of 350 to 600 g. The citrated blood was centrifuged at 1,000 rpm for 10 minutes at room temperature, and the supernatant platelet suspension (PRP) was separated.
The PRP was stored at room temperature, and used as soon as possible. Those which had been stored for more than 4 hours after preparation were not used.
(§3) For each test, a drug is dissolved in dimethylsulfoxide to a concentration of 10 mg/ml, and diluted with physiological saline to form 1 ml each of solutions having a concentration of 2500 μg/ml, 1000 μg/ml, 750 μg/ml, 500 μg/ml, 250 μg/ml and 100 μg/ml. A compound having a free carboxylic acid as a residue such as indomethacine and Ibprofen was dissolved in 0.1 M NaHCO3 to form a sodium salt solution having a concentration of 10 mg/ml. Then, the solution was diluted with physiological saline in the same way as above to form a test drug solution.
(§4) Arachidonic acid (99% pure, a product of Sigma Co., Ltd.) was dissolved in 0.1 M NaHCO3, and a 3.3 mM solution of sodium arachidonate was prepared. The solution was diluted with physiological saline to a concentration of 1 mM and used in the experiments. The 3.3 mM solution was stored in a refrigerator as a stock solution, and the 1 mM solution was newly prepared from the stock solution every time it was used.
(§5) Physiological saline (50 μl) and 50 μl of the aggregating agent solution were added to 400 μl of PRP which had been pre-warmed and stirred at 37° C. in a quvett set in a holder of an aggregometer. Platelet aggregation was thus initiated, and the change of light transmittance through a stirred platelet suspension was recorded for 3 minutes by a recorder joined to the aggregometer. An increase in transmittance after 3 minutes (T0) was used as a parameter of the rate of platelet aggregation in control experiments.
(§6) To 400 μl of PRP in a quvett was added 50 μl of a test drug solution. The mixture was pre-incubated and stirred for 2 minutes at 37° C. Then 50 μl of the aggregating agent was added to drug containing PRP and again aggregation responses were recorded as increases in light transmittance after 3 minutes (T1) in the same way as in (1) above. Percent inhibition was calculated from the formula [formula]
For the above in vitro test for the inhibition of platelet aggregation, reference may be had to H. M. Davis, J. Phyllis, K. Paul and W. Terry: Thromb. Res. 11, 217-226 (1977) and R. E. Anderson and J. G. Foulks: Thromb. Haemos. 36, 343-359 (1976).

[3] = tested on: platelet aggregation (guinea pig PRP, extra vivo); assay: Inhibitory effect of compounds on platelet aggregation in extra vivo (Table 4); set-up: species or system Hartley-strain guinea pigs; settings: Cavia porcellus, 100 mg/kg, route PS [sic], 1 h
Procedure: The effect of the compounds shown in Table 4 on platelet aggregation was assessed using guinea pig in extra vivo.
Each of the test compounds was dissolved in propylene glycol so that its concentration became 100 mg/ml (dosage corresponded to 100 mg/kg) and 30 mg/ml (dosage corresponded to 30 mg/kg). The drug solution was administered either orally or subcutaneously to Hartley-strain guinea pigs (3 per group) having a body weight of 300 to 350 g. As a control, propylene glycol was administered. One hour after the administration, citrated blood was taken out by cardiac puncture, and centrifuged to obtain PRP (see Example 67).
In the case of oral administration, the animals had been fasted overnight.
Into a quvett set in a holder of an aggregometer and prewarmed at 37° C. with stirring, was put 450 μl of the above PRP, and then 50 μl of an aggregating agent was added. The aggregation curve was recorded for an additional 3 minutes, and an increase in light transmittance through PRP after 3 minutes (TB) was recorded (see Example 67). As a control, an increase of transmittance of PRP taken from a guinea pig group administered with propylene glycol alone (TA) was recorded in the same way above. The percent inhibitions were calculated in accordance with the following equation. [formula]
As the aggregating agent, sodium arachidonate (a final concentraton of 0.03 mM) and a collagen suspension (a final concentration of 5 μg/ml) were used.
The percent inhibitions in the above table are averages of three guinea pigs. For details of the above extra vivo test about inhibition of platelet aggregation, the literature references described in Example 67 may be referred to.

[4] = tested on: platelet aggregation (human PRP); assay: Activity of inhibiting platelet aggregation in vitro, human PRP, several aggregating agents (Table 2); assay type: cell-based, human (healthy volunteers)
Procedure: as §1, §2
In the experiment using human PRP, heapinized blood (containing 20 IU/ml of heparin) was taken from the cubital vein of healthy volunteers, and centrifuged at 1,000 rpm at room temperature for 10 minutes. The supernatant platelet suspension (PRP) was separated.
as §3, §4
The collagen suspension (made by Hormon-Chemie, West Germany) was diluted with physiological saline to a concentraton of 100 μg/ml.
Epinephrine hydrogen tartarate was dissolved in physiological saline to form solutions having a concentration of 200 μg/ml (corresponding to a final concentration of 2 μg/ml).
Disodium salt of ADP was dissolved in a 0.1 M tris-hydrochloric acid buffer to form a 50 μM solution (corresponding to a final concentraton of 5 μM).
as §5
as §6, with “[formula] […]” for “[formula]”

carrageenan edema = assay: Antiinflammatory activity (carrageenan edema of rat paw, Table 5); assay type: in vivo, Sprangue-Dawley (SD) male rats; settings: 3 h after 1% carrageenan
Procedure: Sprangue-Dawley (SD) male rats with a body weight of 160 to 180 g, four in each group, were used. The volume of the left leg was measured, and each of the test compounds shown in Table 5 (100 mg/kg dissolved in polyethylene glycol so as to provide a volume of 2 ml/kg) was orally administered. One hour later, 0.1 ml of 1% carrageenan (dissolved in physiological saline) as an inflammation-inducing substance was subcutaneously injected to the paw of the left hind leg. A control group was orally administered with 2 ml/kg of polyethylene glycol. As a positive control, 25 mg/kg of Ibprofen was similarly administered. Three hours after the injection of 1% carrageenan, the volume of the left leg was measured, and the ratio of edema was calculated from the volume before the administration of the carrageenan. The percent inhibition of edema in comparison with the control group was determined.

[5] = collagen 5 μg/ml, read-out: Percent inhibition of platelet aggregation, collagen
[6] = sodium arachidonate 0.03 mM, read-out: Percent inhibition of platelet aggregation, sodium arachidonate

SMILES | ID50 (concentration required to inhibit the biosynthesis of prostaglandins by 50%) [1] | IC50 [2] | inhibition at 100 mg/kg [3, 5] | inhibition at 100 mg/kg [3, 6] | other results
Cc1cc(C(=O)c2ccccc2)c(C)n1C(C)COC(=O)c1ccccc1 (stereo not shown) [Compound 314, 2-(3-benzoyl-2,5-dimethylpyrrol-1-yl)-2-methylethyl benzoate] | 56.0 µg/mL | 1 µg/mL (≈ 2.77 µM) |  |  | 
CC(=O)Oc1ccccc1C(=O)O [Acetylsalicylic acid, reference compound] |  |  | 41% | 77% | 
CC(=O)OC(c1ccccc1)C(C)n1c(C)cc(C(=O)c2ccccc2)c1C (stereo not shown) [Compound 328, 2-(3-benzoyl-2,5-dimethylpyrrol-1-yl)-2-methyl-1-phenylethyl acetate] |  | 2.5 µg/mL |  |  | 
COc1ccc2c(c1)c(CC(=O)O)c(C)n2C(=O)c1ccc(Cl)cc1 [Indomethacine] | 0.6 µg/mL | 5 µg/mL (≈ 14 µM) |  |  | IC50 ([4]; ADP 5 μM, read-out: IC50, aggregation by ADP): 10 µg/mL (≈ 27.9 µM); IC50 ([4]; arachidonate 0.1 mM, read-out: IC50, aggregation by arachidonate): 1 µg/mL (≈ 2.79 µM); IC50 ([4]; collagen 10 μg/ml, read-out: IC50, aggregation by collagen): 10 µg/mL (≈ 27.9 µM); IC50 ([4]; epinephrine 2 μg/ml, primary aggregation, read-out: IC50, aggregation by epinephrine, primary): 10 µg/mL (≈ 27.9 µM); IC50 ([4]; epinephrine 20 μg/ml, secondary aggregation, read-out: IC50, aggregation by epinephrine, secondary): 1 µg/mL (≈ 2.79 µM)
COCCn1c(C)cc(C(=O)c2cccs2)c1C [Compound 252, 2-[3-(2-thenoyl)-2,5-dimethylpyrrol-1-yl]-ethyl methyl ether] |  | 2.5 µg/mL (≈ 9.49 µM) |  |  | 
Cc1cc(C(=O)c2ccccc2)c(C)n1CCSc1ccccc1 [Compound 404, 2-(3-benzoyl-2,5-dimethylpyrrol-1-yl)ethyl phenyl sulfide] |  | 2.5 µg/mL (≈ 7.45 µM) |  |  | 
CCCCC(=O)OCC(C)n1c(C)cc(C(=O)c2ccccc2)c1C (stereo not shown) [Compound 310, 2-(3-benzoyl-2,5-dimethylpyrrol-1-yl)-2-methylethyl valerate] | 11.5 µg/mL | 2.5 µg/mL (≈ 7.32 µM) |  |  | 
CC(C)Cc1ccc(C(C)C(=O)O)cc1 (stereo not shown) [Ibprofen, reference compound] |  |  |  |  | Percent inhibition of edema (positive control) (carrageenan edema; 25 mg/kg): 51%
CCOC(=O)C(C)n1c(C)cc(C(=O)c2ccccc2)c1C (stereo not shown) [Compound 706, ethyl 2-(3-benzoyl-2,5-dimethylpyrrol-1-yl) propionate] | 20.0 µg/mL | 1 µg/mL (≈ 3.34 µM) |  |  | 
COC(c1ccccc1)C(C)n1c(C)cc(C(=O)c2ccccc2)c1C (stereo not shown) [Compound 218, 2-(3-benzoyl-2,5-dimethylpyrrol-1-yl)-2-methyl-1-phenylethyl methyl ether] |  | 5 µg/mL (≈ 14.4 µM) |  |  | 
Cc1cc(C(=O)c2ccccc2)c(C)n1C(C)C(N)=O (stereo not shown) [Compound 802, 2-(3-benzoyl-2,5-dimethylpyrrol-1-yl)propionamide] |  | 5 µg/mL (≈ 18.5 µM) | 40% | 100% | 
COCC(C)n1c(C)cc(C(=O)c2ccccc2)c1C (stereo not shown) [Compound 206, 2-(3-benzoyl-2,5-dimethylpyrrol-1-yl)-2-methylethyl methyl ether] | 18.4 µg/mL | 2.5 µg/mL (≈ 9.21 µM) | 97% | 90% | Percent inhibition of edema (carrageenan edema; 100 mg/kg orally): 10%
Cc1cc(C(=O)c2ccccc2)c(C)n1CCO [Compound 100, 2-(3-benzoyl-2,5-dimethylpyrrol-1-yl)-ethanol] | 145.3 µg/mL | 5 µg/mL (≈ 20.6 µM) |  |  | 
Cc1cc(C(=O)c2ccccc2)c(C)n1[C@@H](C)CO [Compound 108, (2S)-2-(3-benzoyl-2.5-dimethylpyrrol-1-yl)-2-methylethanol] |  | 5 µg/mL (≈ 19.4 µM) | 14% | 62% | 
Cc1cc(C(=O)c2ccccc2)c(C)n1[C@H](C)CO [Compound 110, (2R)-2-(3-benzoyl-2,5-dimethylpyrrol-1-yl)-2-methylethanol] |  | 1 µg/mL (≈ 3.89 µM) | 90% | 96% | 
COCCn1c(C)cc(C(=O)c2ccccc2C)c1C [Compound 238, 2-(3-o-methylbenzoyl-2,5-dimethylpyrrol-1-yl) ethyl methyl ether] |  | 10 µg/mL (≈ 36.9 µM) |  |  | 
